Blank lines part the entries; values can stand above or below the compound they belong to.
Key:
[1] = tested on: ADTC5 chondrogenic cell line; conditions: Brown et al. 2008; cited from earlier work
[2] = tested on: mesenchymal cells of E11.5 mouse embryo limb buds; assay: Limb bud micromass chondrogenesis, alcian blue staining; assay type: cell-based; conditions: three concentrations up to 20 μg/ml; dose-dependent; day 4 and 6
Method: (§1) Micromass cultures were prepared from the mesenchymal cells of E11.5 mouse embryo limb buds (Ahrens et al. (1979) Dev. Biol., 69:436-50). Dissociated cells were suspended at a concentration of 5×10^6 cells/ml in DMEM containing 3% fetal bovine serum and antibiotics. Micromass cultures were initiated by spotting 20 μl of the cell suspensions […] onto the surface of 24-well tissue culture dishes. After a 90-minute incubation at 37° C. in a humidified CO2 incubator to allow for cell attachment, the cultures were supplied with 0.25 ml of medium. After 24 hours, medium supplemented with the indicated concentrations of Surfen (bis-2-methyl-4-aminoquinolyl-6-carbamide), bacterial heparitinase III (Sigma), recombinant human BMP2 (R&D Systems), recombinant human heparanase, or roneparstat (Sigma-Tau Research S.A.). Fresh reagents (drug and/or protein) were given with medium change every other day. Equivalent amounts of vehicle were added to control cultures. Cultures were stained with Alcian blue (pH 1.0) after four and six days to monitor chondrogenic cell differentiation by standard methods. Micromass analysis was performed using ImageJ. Images were made binary under an RGB threshold, and “Particle Analysis” was utilized to measure nodule size, number, and Alcian blue positive area.

[3] = tested on: mesenchymal cells of E11.5 mouse embryo limb buds; assay: Micromass diameter (proliferation/migration of peripheral cells); assay type: cell-based; conditions: day 4 and day 6
Method: Micromass cultures were prepared from the mesenchymal cells of E11.5 mouse embryo limb buds (Ahrens et al. (1979) Dev. Biol., 69:436-50). Dissociated cells were suspended at a concentration of 5×10^6 cells/ml in DMEM containing 3% fetal bovine serum and antibiotics. Micromass cultures were initiated by spotting 20 μl of the cell suspensions (1.5×10^5 cells) onto the surface of 24-well tissue culture dishes. After a 90-minute incubation at 37° C. in a humidified CO2 incubator to allow for cell attachment, the cultures were supplied with 0.25 ml of medium. After 24 hours, medium supplemented with the indicated concentrations of Surfen (bis-2-methyl-4-aminoquinolyl-6-carbamide), bacterial heparitinase III (Sigma), recombinant human BMP2 (R&D Systems), recombinant human heparanase, or roneparstat (Sigma-Tau Research S.A.). […]
(§2) ATDC5 cells were treated at day 0 with human heparanase (400 ng/ml) or a vehicle control. […] DNA isolation was performed using TRIzol® reagent (Invitrogen) according to the manufacturer's protocols and measured using a NanoDrop (ThermoScientific). ATDC5 migration was analyzed via a scratch test. […] The open scratch area was quantified with ImageJ (n=6/treatment group). In micromass cultures, migration was determined by expansion of the micromass itself from day 0 to day 4 or 6. The diameters of untreated micromasses (n=10) were measured and averaged for a baseline size. […]

endogenous heparanase [4] = assay: Immunoblot of endogenous heparanase protein in micromass cultures; assay type: cell-based, mouse
Method: ATDC5 cells were grown to 100% confluence in 6-well plates and treated with indicated concentrations of Surfen, bis-2-methyl-4-amino-quinolyl-6-carbamide. […] The membranes were re-blotted with antibodies to α-tubulin (Sigma T-5168, 1:2000) for normalization, and band intensities were quantified by computer-assisted image analysis.

[5] = tested on: collagen II (ColII), aggrecan (Agg) and Runx2; assay: Semi-quantitative RT-PCR of chondrogenic marker genes in micromass cultures; assay type: cell-based, mouse; conditions: micromass day 4 and 6
Method: as §1
Total RNA was extracted from cells by the guanidine phenol method using TRIzol® reagent (Invitrogen) according to the manufacturer's protocols and measured using a NanoDrop. One μg of total RNA was reverse transcribed using the SuperScript® III First-Strand Synthesis System (Life Technologies). Band intensities for semiquantitative PCR were normalized to GAPDH and compared while band intensities and cycle numbers were linear. […] Band intensities were quantified by computer-assisted image analysis (ImageQuant™ TL, GE Healthcare).

[6] = tested on: mesenchymal cells of E11.5 mouse embryo limb buds; assay: Cell number, density and whole cellular RNA/DNA content of micromass cultures; assay type: cell-based
Method: (§3) Micromass cultures were prepared from the mesenchymal cells of E11.5 mouse embryo limb buds (Ahrens et al. (1979) Dev. Biol., 69:436-50). Dissociated cells were suspended at a concentration of 5×10^6 cells/ml in DMEM containing 3% fetal bovine serum and antibiotics. Micromass cultures were initiated by spotting 20 μl of the cell suspensions (1.5×10^5 cells) onto the surface of 24-well tissue culture dishes. After a 90-minute incubation at 37° C. in a humidified CO2 incubator to allow for cell attachment, the cultures were supplied with 0.25 ml of medium. After 24 hours, medium supplemented with the indicated concentrations of Surfen (bis-2-methyl-4-aminoquinolyl-6-carbamide), bacterial heparitinase III (Sigma), recombinant human BMP2 (R&D Systems), recombinant human heparanase, or roneparstat (Sigma-Tau Research S.A.). Fresh reagents (drug and/or protein) were given with medium change every other day. Equivalent amounts of vehicle were added to control cultures. Cultures were stained with Alcian blue (pH 1.0) after four and six days to monitor chondrogenic cell differentiation by standard methods. Micromass analysis was performed using ImageJ. […]
as §2
(§4) Total RNA was extracted from cells by the guanidine phenol method using TRIzol® reagent (Invitrogen) according to the manufacturer's protocols and measured using a NanoDrop. […] Band intensities were quantified by computer-assisted image analysis (ImageQuant™ TL, GE Healthcare).

heparanase = biological target: T1, heparanase (Homo sapiens, UniProt Q9Y251); conditions: Ritchie et al. 2011; cited from earlier work
T1 sequence (Q9Y251 158-543 limits assumed): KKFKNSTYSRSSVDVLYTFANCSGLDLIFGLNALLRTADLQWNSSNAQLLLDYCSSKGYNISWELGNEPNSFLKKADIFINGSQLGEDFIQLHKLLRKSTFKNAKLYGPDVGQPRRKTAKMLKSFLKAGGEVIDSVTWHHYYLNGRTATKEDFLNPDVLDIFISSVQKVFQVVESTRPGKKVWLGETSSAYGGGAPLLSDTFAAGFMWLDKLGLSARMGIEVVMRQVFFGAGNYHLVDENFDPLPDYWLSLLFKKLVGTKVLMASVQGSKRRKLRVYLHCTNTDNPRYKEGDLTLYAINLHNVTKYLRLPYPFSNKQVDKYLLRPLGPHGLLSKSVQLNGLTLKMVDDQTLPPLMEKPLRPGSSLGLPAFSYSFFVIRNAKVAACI
T1 sequence (Q9Y251 36-109 limits assumed): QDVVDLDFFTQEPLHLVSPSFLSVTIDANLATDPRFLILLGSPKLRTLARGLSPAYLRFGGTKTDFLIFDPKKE

[7] = literature; cited from earlier work
[8] = mouse models of diabetic nephropathy; cited from earlier work
[9] = tested on: myeloma and sarcoma cells; conditions: mouse models; Ritchie 2011, Cassinelli 2013; cited from earlier work
endogenous heparanase [10] = assay: Immunoblot of endogenous heparanase protein in ATDC5 cultures; assay type: cell-based, mouse; conditions: compared with the micromass response
Method: ATDC5 cells, derived from mouse embryonal carcinoma, were cultured in 10 cm dishes with a 1:1 mixture of Dulbecco's modified Eagle's medium and Ham's F-12 (Life Technologies) supplemented with 5% fetal bovine serum (ATCC), 10 μg/ml human transferrin (Mediatech), […] sodium selenite (Mediatech), and 20 μg/ml insulin at 37° C. under 5% CO2. Experiments were conducted once cells reached confluence.
ATDC5 cells were grown to 100% confluence in 6-well plates and treated with indicated concentrations of Surfen, bis-2-methyl-4-amino-quinolyl-6-carbamide. Micromass cultures were treated with control vehicle, Surfen, human heparanase, roneparstat, or rhBMP2. At specified time points, total cellular proteins were harvested in SDS-PAGE sample buffer, electrophoresed on 4-15% SDS-Bis-Tris gels (40 μg per lane) and transferred to PVDF membranes (Invitrogen). Membranes were incubated overnight at 4° C. with dilutions of antibodies against phospho-Smad1/5/8 (Cell Signaling Technology 9511, 1:1000), Smad1 (Abcam 63439, 1:500) or human heparanase (Abcam 59787, 1:750). Enhanced chemiluminescent immunoblotting detection system (Pierce) was used to detect the antigen antibody complexes. The membranes were re-blotted with antibodies to α-tubulin (Sigma T-5168, 1:2000) for normalization, and band intensities were quantified by computer-assisted image analysis.

heparanase mRNA = assay: Semi-quantitative RT-PCR of heparanase mRNA in micromass cultures; assay type: cell-based, mouse
Method: as §3, with “methods.” for “methods. Micromass analysis was performed using ImageJ.”
as §4

Compound: PI-88
alcian blue staining and cartilage gene expression [1]: only modest reductions

levels of endogenous heparanase vs untreated control cultures (endogenous heparanase [4]; micromass cultures, immunoblot): reduced
whole cellular RNA and DNA content, treated vs untreated ([6]; day 4 and day 6): remained similar
whole cellular RNA and DNA content ([6]; maximal 20 μg/ml dose): minor decreases
Compound: roneparstat
formation of alcian blue-positive chondrogenic nodules [2]: strongly reduced
overall diameter of micromass cultures vs control [3]: reduced the overall diameter
expression of Runx2 [5]: dose-dependently inhibited
expression of aggrecan (Agg) [5]: dose-dependently inhibited
expression of collagen II (ColII) [5]: dose-dependently inhibited
overall cell number and density (hematoxylin counterstaining) ([6]; after treatment of micromass cultures): had not changed significantly
inhibitory activity on heparanase (heparanase): very strong inhibitory activity
anticoagulant properties [7]: without anticoagulant properties
extent of albuminuria and renal damage [8]: markedly decreases
growth of myeloma and sarcoma cells and concomitant angiogenesis [9]: interfere with the growth

increase of endogenous heparanase protein levels (endogenous heparanase [4]; 7.5 μM, limb micromass cultures, immunoblot densitometry): about 8 fold
heparanase mRNA amounts (heparanase mRNA): increased
Compound: Cc1cc(N)c2cc(NC(=O)Nc3ccc4nc(C)cc(N)c4c3)ccc2n1 [Surfen, bis-2-methyl-4-aminoquinolyl-6-carbamide]
endogenous heparanase protein levels in ADTC5 cell cultures (endogenous heparanase [10]): very similar response
